According to ChEMBL document CHEMBL4364307, “2-(phenylthio)ethylidene derivatives as anti-Trypanosoma cruzi compounds: Structural design, synthesis and antiparasitic activity” (Eur J Med Chem, 2019):
The source made the active and inactive calls. No cut-off for these calls is given here.

Tests used:
[1] = Selectivity index, ratio of maximum non-toxic concentration for Balb/c mouse splenocyte to IC50 for bloodstream form of Trypanosoma cruzi trypomastigotes; assay type: toxicity; settings: mouse splenocytes, read-out: Selectivity Index
Trypanosoma cruzi [2] = test: Antitrypanosomal activity against bloodstream form of Trypanosoma cruzi trypomastigotes after 24 hrs by Neubauer chamber method; assay type: functional, organism-based
Trypanosoma cruzi [3] = test: Induction of apoptosis in bloodstream form of Trypanosoma cruzi trypomastigotes at 0.25 mM after 24 hrs by annexin V-FITC/propidium iodide staining based flow cytometry relative to control; assay type: functional, organism-based
[4] = Cytotoxicity against Balb/c mouse splenocyte assessed as reduction in cell viability after 24 hrs by [3H]thymidine incorporation based beta scintillation counting analysis; settings: mouse splenocytes
Trypanosoma cruzi [5] = test: Antitrypanosomal activity against Trypanosoma cruzi Dm28c epimastigotes after 5 days by Neubauer chamber method; assay type: functional, organism-based; settings: 120 h
Trypanosoma cruzi [6] = test: Induction of apoptosis in bloodstream form of Trypanosoma cruzi trypomastigotes at 1.1 mM after 24 hrs by annexin V-FITC/propidium iodide staining based flow cytometry relative to control; assay type: functional, organism-based
Cruzipain = Cruzipain (Trypanosoma cruzi, UniProt P25779); test: Inhibition of Trypanosoma cruzi cruzain using Z-FR-AMC as substrate preincubated for 10 mins followed by substrate addition and measured for 5 mins by fluorimetric analysis
[7] = target: Cruzipain (Trypanosoma cruzi) (UniProt P25779); test: Inhibition of Trypanosoma cruzi cruzain at 100 uM using Z-FR-AMC as substrate preincubated for 10 mins followed by substrate addition and measured for 5 mins by fluorimetric analysis relative to control
Trypanosoma cruzi [8] = test: Antiparasitic activity against bloodstream form of Trypanosoma cruzi Y strain trypomastigotes infected in Balb/c mouse peritoneal macrophage assessed as reduction in number of amastigotes/100 macrophages at 20 uM incubated for 6 hrs followed by replacement of fresh medium measured after 3 days by Giemsa-staining based optical microscopic analysis; assay type: functional, organism-based
Trypanosoma cruzi [9] = test: Antiparasitic activity against bloodstream form of Trypanosoma cruzi Y strain trypomastigotes infected in Balb/c mouse peritoneal macrophage assessed as reduction in percent of infected macrophages at 20 uM incubated for 6 hrs followed by replacement of fresh medium measured after 3 days by Giemsa-staining based optical microscopic analysis; assay type: functional, organism-based
Trypanosoma cruzi [10] = test: Antiparasitic activity against bloodstream form of Trypanosoma cruzi Y strain trypomastigotes infected in Balb/c mouse peritoneal macrophage incubated for 6 hrs followed by replacement of fresh medium measured after 3 days by Giemsa-staining based optical microscopic analysis; assay type: functional, organism-based
Trypanosoma cruzi [11] = test: Antiparasitic activity against bloodstream form of Trypanosoma cruzi Y strain trypomastigotes infected in Balb/c mouse peritoneal macrophage at 20 uM incubated for 2 hrs followed by extracellular parasites wash out and measured after 2 hrs by Giemsa staining-based optical microscopic analysis
Trypanosoma cruzi [12] = test: Induction of morphological changes in Trypanosoma cruzi bloodstream trypomastigotes assessed as disorganization of golgi complex at 3 uM after 24 hrs by TEM analysis; assay type: functional, organism-based
Trypanosoma cruzi [13] = test: Induction of morphological changes in Trypanosoma cruzi bloodstream trypomastigotes assessed as appearance of atypical vacuoles in cytoplasm at 3 uM after 24 hrs by TEM analysis; assay type: functional, organism-based
Trypanosoma cruzi [14] = test: Induction of morphological changes in Trypanosoma cruzi bloodstream trypomastigotes assessed as appearance myelin figures in cytoplasm at 3 uM after 24 hrs by TEM analysis; assay type: functional, organism-based
Trypanosoma cruzi [15] = test: Induction of morphological changes in Trypanosoma cruzi bloodstream trypomastigotes assessed as appearance of myelin figures in mitochondria at 3 uM after 24 hrs by TEM analysis; assay type: functional, organism-based
Trypanosoma cruzi [16] = test: Antitrypanosomal activity against Trypanosoma cruzi Y strain epimastigotes after 15 hrs by hemocytometer based cell counting method; assay type: functional, organism-based

Cruzipain (Trypanosoma cruzi), sequence (P25779 123-467 limits assumed): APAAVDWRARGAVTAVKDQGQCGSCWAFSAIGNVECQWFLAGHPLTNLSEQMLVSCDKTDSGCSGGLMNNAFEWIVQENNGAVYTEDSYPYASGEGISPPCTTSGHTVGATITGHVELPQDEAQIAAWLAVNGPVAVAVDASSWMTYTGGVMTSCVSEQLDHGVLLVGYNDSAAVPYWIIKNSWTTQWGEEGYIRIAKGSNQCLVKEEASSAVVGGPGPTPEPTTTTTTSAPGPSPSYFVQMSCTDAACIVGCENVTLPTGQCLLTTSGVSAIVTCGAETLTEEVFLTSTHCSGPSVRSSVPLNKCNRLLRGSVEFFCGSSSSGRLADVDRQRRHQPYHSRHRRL
Cruzipain, sequence (P25779 whole entry): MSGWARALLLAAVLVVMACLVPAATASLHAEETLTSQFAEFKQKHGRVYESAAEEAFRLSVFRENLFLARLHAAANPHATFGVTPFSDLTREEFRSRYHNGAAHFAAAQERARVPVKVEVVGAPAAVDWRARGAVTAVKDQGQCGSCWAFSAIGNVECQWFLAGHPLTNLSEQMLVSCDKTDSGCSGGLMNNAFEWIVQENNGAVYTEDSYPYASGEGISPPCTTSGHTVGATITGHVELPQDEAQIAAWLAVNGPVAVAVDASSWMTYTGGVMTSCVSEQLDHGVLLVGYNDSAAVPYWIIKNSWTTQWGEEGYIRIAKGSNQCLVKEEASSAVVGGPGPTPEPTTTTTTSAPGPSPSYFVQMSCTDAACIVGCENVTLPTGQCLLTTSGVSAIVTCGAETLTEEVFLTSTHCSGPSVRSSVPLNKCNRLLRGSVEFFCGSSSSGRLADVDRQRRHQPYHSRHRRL

IC50 (Trypanosoma cruzi [2]) [µM] | IC50 (Trypanosoma cruzi [5]) [µM] | inhibition [7] [%] | Compound | selectivity ratio [1] | MNTC at 24 h [4] [µM] | further results
18.5 | 62.7 | – | COc1ccc(-c2csc(N/N=C/CSc3ccccc3)n2)cc1 | > 15.2 | > 281 | –
6.2 | 47.7 | 46 | NC(=S)N/N=C/CSc1ccccc1Cl | 0.6 | < 3.8 | –
6.1 | 15.3 | 13.9 | Cc1ccccc1SC/C=N/NC(N)=S | 6.9 | 41.8 | –
14.1 | 6.2 | 25.2 | NC(=S)N/N=C/CSc1ccc(Cl)cc1 | 0.3 | < 3.8 | –
15.2 | 56.5 | 62.9 | Clc1ccc(-c2csc(N/N=C/CSc3ccccc3)n2)cc1Cl | 8.3 | 127 | –
19.2 | 8.4 | 16.2 | O=[N+]([O-])c1cccc(-c2csc(N/N=C/CSc3ccccc3)n2)c1 | 7 | 135 | –
4.1 | 7.9 | 67.2 | Clc1ccc(-c2csc(N/N=C/CSc3ccccc3)n2)c(Cl)c1 | 30.9 | 127 | Activity (Trypanosoma cruzi [3]): Active; Activity (Trypanosoma cruzi [6]): Active
3.8 | 4 | – | C/C(COc1ccccc1)=N\Nc1nc(-c2cccc([N+](=O)[O-])c2)cs1 | – | – | –
89 | 102 | 42.1 | NC(=S)N/N=C/CSc1ccccc1 | 0.25 | – | –
6.6 | 15.4 | 16.6 | NC(=S)N/N=C/CSc1ccc(Br)cc1 | 0.5 | < 3.3 | Activity (Trypanosoma cruzi [3]): Active; Activity (Trypanosoma cruzi [6]): Active
8.2 | 6.1 | 37.4 | NC(=S)N/N=C/CSc1cc(Cl)ccc1Cl | 10.4 | 85 | –
5.7 | 6.1 | 27.5 | NC(=S)N/N=C/CSc1ccc(F)cc1 | 3.6 | 20.5 | –
– | 9.6 | 31.4 | Cc1ccc(SC/C=N/NC(N)=S)cc1 | – | 4.2 | –

Continued, compound first:

Compound | IC50 (Trypanosoma cruzi [2]) [µM] | IC50 (Trypanosoma cruzi [5]) [µM] | inhibition [7] [%] | selectivity ratio [1] | MNTC at 24 h [4] [µM] | further results
O=C(Cn1ccnc1[N+](=O)[O-])NCc1ccccc1 [BENZNIDAZOLE] | 6.2 | – | – | 15.5 | – | –
C(/CSc1ccccc1)=N\Nc1nc(-c2ccccc2)cs1 | 5.2 | 59.4 | – | 29.5 | 154 | Activity (Trypanosoma cruzi [3]): Active; Activity (Trypanosoma cruzi [6]): Active
NC(=S)N/N=C/CSc1cccc(Cl)c1 | 14.1 | 5.5 | 75.9 | 6.8 | 96.2 | IC50 (Cruzipain): 19 µM
O=[N+]([O-])c1ccc(-c2csc(N/N=C/CSc3ccccc3)n2)cc1 | 8.4 | 16 | 18.9 | 8 | 67.5 | Activity (Trypanosoma cruzi [8]): Active; Activity (Trypanosoma cruzi [9]): Active; IC50 (Trypanosoma cruzi [10]): 19.3 µM
Brc1ccc(-c2csc(N/N=C/CSc3ccccc3)n2)cc1 | 14.3 | 5.4 | 7 | > 16.7 | > 239 | –
C/C(COc1ccccc1)=N\Nc1nc(-c2ccncc2)cs1 | 3.9 | 4 | – | – | – | –
Clc1ccc(-c2csc(N/N=C/CSc3ccccc3)n2)cc1 | 4.1 | 6.8 | 17.6 | > 67.8 | > 278 | inhibition (Trypanosoma cruzi [11]): Active; Activity (Trypanosoma cruzi [3]): Active; Activity (Trypanosoma cruzi [8]): Active; Activity (Trypanosoma cruzi [9]): Active; Activity (Trypanosoma cruzi [6]): Active; IC50 (Trypanosoma cruzi [10]): 7.88 µM
COc1ccc(SC/C=N/NC(N)=S)cc1 | 39.7 | 32.1 | 34.6 | 0.1 | < 3.9 | –
Cc1ccc(-c2csc(N/N=C/CSc3ccccc3)n2)cc1 | 5.7 | 9.4 | 11.9 | 25.8 | 147 | Activity (Trypanosoma cruzi [3]): Active; Activity (Trypanosoma cruzi [8]): Active; Activity (Trypanosoma cruzi [9]): Active; Activity (Trypanosoma cruzi [6]): Active; IC50 (Trypanosoma cruzi [10]): 18.8 µM
Cc1sc(N/N=C/CSc2ccccc2)nc1-c1ccc(Br)cc1 | 2.6 | 4.1 | 27 | > 95.1 | > 247 | inhibition (Trypanosoma cruzi [11]): Active; Activity (Trypanosoma cruzi [12]): Active; Activity (Trypanosoma cruzi [3]): Active; Activity (Trypanosoma cruzi [13]): Active; Activity (Trypanosoma cruzi [8]): Active; Activity (Trypanosoma cruzi [9]): Active; Activity (Trypanosoma cruzi [6]): Active; Activity (Trypanosoma cruzi [14]): Active; IC50 (Trypanosoma cruzi [10]): 10.2 µM; Activity (Trypanosoma cruzi [15]): Active
C/C(COc1ccccc1)=N\Nc1nc(-c2ccc(Br)cc2)cs1 | – | 49.8 | – | – | – | –
Fc1ccc(-c2csc(N/N=C/CSc3ccccc3)n2)cc1 | 41.7 | – | 22.9 | > 7 | > 291 | –
CC(C)C1S/C(=N/N=C/CSc2ccccc2)NC1=O (stereo not drawn) | – | – | – | – | – | IC50 (Trypanosoma cruzi [16]): 0.3 µM
Cc1ccc(C)c(SC/C=N/NC(N)=S)c1 | 5.9 | 6.2 | 87.6 | 0.7 | < 3.9 | Activity (Trypanosoma cruzi [3]): Active; IC50 (Cruzipain): 3.3 µM; Activity (Trypanosoma cruzi [6]): Active
Cc1cccc(SC/C=N/NC(N)=S)c1 | 1.8 | 6.3 | 43.4 | 2.3 | < 4.2 | Activity (Trypanosoma cruzi [3]): Active; Activity (Trypanosoma cruzi [6]): Active
